Key:
LoVo = assay: Cytotoxicity assay (SRB), LoVo; format: cell-based; details: Homo sapiens, LoVo, 72 h, LoVo cells, SRB, three days; read-out: In Vitro Cellular Activity IC50 LOVO
In short: (§1)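 Protein staining with sulforhodamine B after cold TCA fixation served as the survival endpoint (A540, relative to untreated cells). Before staining, cells were incubated with compound at 37 °C, 7% CO2 for 3 days, or 6 days for BT474.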

BT474 = assay: Cytotoxicity assay (SRB), BT474; format: cell-based; details: Homo sapiens, BT-474, 144 h, BT474 cells, SRB, 6 days; read-out: In Vitro Cellular Activity IC50 BT474
In short: as §1

HCT-116 = assay: Cytotoxicity assay (SRB), HCT-116; format: cell-based; details: Homo sapiens, HCT-116, 72 h, HCT116 cells, SRB, three days; read-out: In Vitro Cellular Activity IC50 HCT116
In short: as §1

MCF-7 = assay: Cytotoxicity assay (SRB), MCF-7; format: cell-based; details: Homo sapiens, MCF7, 72 h, MCF-7 cells, SRB, three days; read-out: In Vitro Cellular Activity IC50 MCF-7
In short: as §1

| melting point | SMILES | IC50 (LoVo) | IC50 (BT474) | IC50 (HCT-116) | IC50 (MCF-7) |
| --- | --- | --- | --- | --- | --- |
| 152 to 153 °C | CN1CCN(c2ccc(N/C=C3\C(=O)NC(=O)c4ccc(-c5ccc(C=O)cc5)cc43)cc2)CC1 (hydrate or solvate) [Example 115, 4-[(4Z)-4-({[4-(4-Methylpiperazin-1-yl)phenyl]amino}methylene)-1,3-dioxo-1,2,3,4-tetra-hydroisoquinolin-6-yl]benzaldehyde] |  |  |  |  |
| 168 to 169 °C | COc1ccc(-c2ccc3c(c2)/C(=C/Nc2ccc(CN4CCCCC4)cc2)C(=O)NC3=O)cc1 (hydrate or solvate) [Example 116, (4Z)-6-(4-Methoxyphenyl)-4-({[4-(piperidin-1-ylmethyl)phenyl]amino}methylene)-isoquinoline-1,3(2H,4H)-dione] |  |  |  |  |
| 169 to 170 °C | COc1cccc(-c2ccc3c(c2)/C(=C/Nc2ccc(CN4CCCCC4)cc2)C(=O)NC3=O)c1 (hydrate or solvate) [Example 117, (4Z)-6-(3-Methoxyphenyl)-4-({[4-(piperidin-1-ylmethyl)phenyl]amino}methylene)-isoquinoline-1,3(2H,4H)-dione] |  |  |  |  |
| 218 to 220 °C | CN1CCN(c2ccc(N/C=C3\C(=O)NC(=O)c4ccc(-c5ccc(C=O)o5)cc43)cc2)CC1 (hydrate or solvate) [Example 124, 5-[(4Z)-4-({[4-(4-Methylpiperazin-1-yl)phenyl]amino}methylene)-1,3-dioxo-1,2,3,4-tetrahydroisoquinolin-6-yl]-2-furaldehyde] |  |  |  |  |
| 135 to 136 °C | COC[C@H]1CCCN1c1ccc2c(c1)/C(=C/Nc1ccc(CN3CCCCC3)cc1)C(=O)NC2=O [Example 121, (4Z)-6-[(2R)-2-(Methoxymethyl)pyrrolidin-1-yl]-4-({[4-(piperidin-1-ylmethyl)phenyl]amino}methylene)isoquinoline-1,3(2H,4H)-dione] | 3.8 µM | 7.7 µM | 5.5 µM | 4.6 µM |
| 297 to 298 °C | COc1ccc(CN/C=C2\C(=O)NC(=O)c3cc(Br)ccc32)cc1O [Example 135, (4Z)-7-Bromo-4-{[(3-hydroxy-4-methoxybenzyl)amino]methylene}isoquinoline-1,3(2H,4H)-dione] | > 50 µM | > 50 µM | 31 µM | > 50 µM |
| 142 to 143 °C | CN1CCN(c2ccc(NC=C3C(=O)NC(=O)c4ccc(OCCN5CCOCC5)cc43)cc2)CC1 [Example 155, 4-{[4-(4-Methyl-piperazin-1-yl)-phenylamino]-methylene}-6-(2-morpholin-4-yl-ethoxy)-4H-isoquinoline-1,3-dione] | 19 µM | 22 µM | 17 µM | 26 µM |
| 312 to 313 °C | Cc1ccc(CN/C=C2\C(=O)NC(=O)c3ccc(I)cc32)cc1O [Example 157, (4Z)-4-{[(4-Methyl-3-hydroxybenzyl)amino]methylene}-6-iodoisoquinoline-′1,3(2H,4H)-dione] | 22 µM | 19 µM | 6.7 µM | 8.2 µM |
| 175 to 176 °C | CN1CCN(c2ccc(N/C=C3\C(=O)NC(=O)c4ccc(C#CCOC5CCCCO5)cc43)cc2)CC1 (stereo not drawn) [Example 161, (4Z)-4-({[4-(4-Methylpiperazin-1-yl)phenyl]amino}methylene)-6-[3-(tetrahydro-2H-pyran-2-yloxy)prop-1-ynyl]isoquinoline-1,3(2H,4H)-dione] | 6.4 µM | 3.4 µM | 2.2 µM | 4 µM |
| 222 to 223 °C | CCOC(=O)C1(C(=O)OCC)Oc2ccc(CN/C=C3\C(=O)NC(=O)c4ccc(Br)cc43)cc2O1 [Example 179, (Z)-Diethyl 5-(((6-bromo-1,3-dioxo-2,3-dihydroisoquinolin-4(1H)-ylidene)methylamino)methyl)benzo[d][1,3]dioxole-2,2-dicarboxylate] | 20 µM | 17 µM | 34 µM | 30 µM |

Further lines, the compound ahead of its results:

| SMILES | melting point | IC50 (LoVo) | IC50 (BT474) | IC50 (HCT-116) | IC50 (MCF-7) |
| --- | --- | --- | --- | --- | --- |
| O=C1NCc2ccccc2/C1=C/Nc1ccc(-c2c[nH]cn2)cc1 [Example 3, (4Z)-4-({[4-(1H-Imidazol-4-yl)phenyl]amino}methylene)-1,4-dihydro-3(2H)-isoquinolinone] | 151 to 152 °C (dec.) |  |  |  |  |
| O=C1NC(=O)c2ccccc2/C1=C/Nc1ccc2cn[nH]c2c1 [Example 7, (4Z)-4-[(1H-Indazol-6-ylamino)methylene]isoquinoline-1,3(2H,4H)-dione] | > 300 °C |  |  |  |  |
| O=C1NC(=O)c2ccc(Br)cc2/C1=C/NCc1cccnc1 [Example 30, (4Z)-6-Bromo-4-{[(pyridin-3-ylmethyl)amino]methylene}isoquinoline-1,3(2H,4H)-dione] | 299 to 300 °C |  |  |  |  |
| O=C1NC(=O)c2ccc([N+](=O)[O-])cc2/C1=C/Nc1ccc(CN2CCCCC2)cc1 [Example 42, (4Z)-6-Nitro-4-{[(4-piperidin-1-ylmethyl)phenyl]amino}methyleneisoquinoline-1,3(2H,4H)-dione] | 225 to 235 °C (dec.) |  |  |  |  |
| O=C1NC(=O)c2ccc(Br)cc2/C1=C/NCCc1c[nH]c2ccccc12 [Example 43, (4Z)-6-Bromo-4-({[2-(1H-indol-3-yl)ethyl]amino}methylene)isoquinoline-1,3(2H,4H)-dione] | 278 to 280 °C | > 50 µM | 41 µM | 26 µM | > 50 µM |
| CN1CCN(c2ccc(N/C=C3\C(=O)NC(=O)c4ccc(C(=O)O)cc43)cc2)CC1 [Example 51, (4Z)-4-({[4-(4-Methylpiperazin-1-yl)phenyl]amino}methylene)-1,3-dioxo-1,2,3,4-tetrahydroisoquinoline-6-carboxylic acid] | 278 to 280 °C |  |  |  |  |
| O=C1NC(=O)c2ccc(Br)cc2/C1=C/NCc1ccc(Cl)cc1 [Example 53, (4Z)-6-Bromo-4-{[(4-chlorobenzyl)amino)methylene}isoquinoline-1,3(2H,4H)-dione] | 234 to 235 °C | > 50 µM | 37 µM | 32 µM | > 50 µM |
| COc1ccc(CN/C=C2\C(=O)NC(=O)c3ccc(Br)cc32)cc1OC(C)=O [Example 57, 5-({[(Z)-(6-Bromo-1,3-dioxo-2,3-dihydroisoquinolin-4(1H)-ylidene)methyl]amino}methyl)-2-methoxyphenyl acetate] | 226 to 227 °C | 5.2 µM | 3.7 µM | 9.6 µM | > 50 µM |
| O=C1NC(=O)c2ccc(-c3ccc(Oc4ccccc4)cc3)cc2/C1=C/Nc1ccc(CN2CCCCC2)cc1 [Example 101] | 132 to 133 °C | 4.3 µM | 2.9 µM | 1.2 µM | 3.2 µM |
| O=C1NC(=O)c2ccc(Br)cc2/C1=C/NCc1ccc2c(c1)OCO2 [Example 109, (4Z)-4-{[(1,3-Benzodioxol-5-ylmethyl)amino]methylene}-6-bromoisoquinoline-1,3(2H,4H)-dione] | 227 to 228 °C | > 50 µM | 34.8 µM | 16.8 µM | > 50 µM |
| N#Cc1ccc2c(c1)/C(=C/Nc1ccc(CN3CCCCC3)cc1)C(=O)NC2=O [Example 110, (4Z)-1,3-Dioxo-4-({[4-(piperidin-1-ylmethyl)phenyl]amino}methylene)1,2,3,4-tetrahydroisoquinoline-6-carbonitrile] | 254 to 256 °C (dec.) | 2.5 µM | 3.5 µM | 1.6 µM | 5.8 µM |

Reference: patent US7713994B2 (Wyeth LLC, priority 2005, dated 2010)
